According to paper PMC9271885 (eBioMedicine, 2022):
Several values for one entry are separate records, joined by “and”; a condition that tells them apart may be missing. Equal values may be shown once. Read-outs that look alike come from different tables or passages of the source.

Legend:
[1] = Population pharmacokinetic modelling and simulation of TIZ in hamster (LC-MS/MS, NONMEM); details: Syrian, in vivo, po
Method: At each time point, approximate 80µl of blood were collected from the submandibular vein or the saphenous vein of hamsters. All samples were transferred into commercial K2-EDTA tubes, placed on ice until processed for plasma extraction by centrifugation and stored at −70°C before analysis. A LC-MS/MS-AI Triple Quad 5500 was used to determine TIZ concentrations. The mobile phase was a gradient of 0.1% formic acid (FA) in water and 0.1% of FA in acetonitrile (ACN), the column was an ACQUITY UPLC HSS T3 1.8 μm 2.1 × 50mm. For mass spectrometry a positive electrospray ionization was used, and a selected reaction monitoring was set to select TIZ: [M+H]+m/z: 266.0 / 121.2 and dexamethasone: [M+H]+m/z: 393.0 / 373.1 as internal standard.
Pharmacokinetic profiles of TIZ in hamster were analyzed using a nonlinear mixed-effects modelling approach. The population pharmacokinetics analysis was performed using NONMEM® version 7.4. The final pharmacokinetic model was established by evaluating one-, two-, and three-compartment disposition models, as well as several different absorption models (i.e. first-order absorption, first-order absorption with lag time, and transit absorption models). The inter-individual variabilities of pharmacokinetic parameters were implemented as a log-normal distribution and the residual unexplained variability was modelled as an exponential error.

[2] = system: SARS-CoV-2; experiment: microbe, parasite or virus in culture; assay type: cell-based
[3] = in vitro; details: African green monkey, CC50
Method: One day prior to infection, 96-well culture plates were seeded with 5×10^4 Vero E6 or Caco-2 cells in 100µL assay medium per well (containing 2.5% FCS). […] After 15min, a preset amount of virus diluted in 25µL of assay medium was added to the wells. This quantity of virus was calibrated so that the viral replication was still in the exponential growth phase for the readout, as previously described, [28], [29] which correspond here to 150 TCID50 per well. Four “cell control” wells were supplemented with 50µL of assay medium without any compounds or virus. On each culture plate, a positive control compound (Remdesivir, BLDpharm) was added in duplicate with eight 2-fold serial dilutions (0.16µM to 20µM). Plates were incubated for 2 days at 37°C prior to quantification of the viral genome by real-time RT-PCR as described below. For the determination of the 50% cytotoxic concentrations (CC50; compound concentration required to reduce by 50% cell viability), the same culture conditions were used, without addition of the virus, and cell viability was measured using CellTiter Blue® (Promega) following manufacturer's instructions. EC50, EC90 and CC50 were determined using logarithmic interpolation as previously described.[28] The selectivity index of the compounds was calculated as the ratio of the CC50 over the EC50.

[4] = Quantification of TIZ in plasma, lung and nasal turbinates of hamsters (HPLC-UV); assay type: in vivo, Syrian hamsters
Method: Quantification of TIZ in plasma and lung tissues was performed by high-performance liquid chromatography with UV detection method (Alliance 2695, Waters, USA) with a lower limit of quantification of 0.01µg/mL. The mobile phase consisted of 0.1% FA in water and 0.1% of FA in ACN (65:35, v/v). The chromatographic separation was achieved using an isocratic mode with an Xbridge BEH C18 2.5μm 4.6 × 100mm column. Peak area was quantified at 340nm using the Waters 2489 detector. TIZ was extracted by a simple protein precipitation method, using acetonitrile for plasma and ice-cold acetonitrile for clarified lung homogenates. Briefly, 200µL of samples matrix was added to 1000µL of acetonitrile solution containing the internal standard (thiopental), then vortexed for 2min followed by centrifugation for 10min at 4°C. The supernatant medium was evaporated under vacuum, then transferred to a 1.5mL Eppendorf tube. The dried residue was reconstituted with 100µl of ACN:water (50:50), vortexed for 30 seconds and centrifuged again for 10min at 4°C. The supernatant was transferred to an autosampler and 50µL was injected.
We used tissues from infected animals sacrificed at 3 dpi following multiple administration (animals from Figure 3); an additional group of uninfected animals treated with a single dose of 13.5mg was used as control. TIZ concentration in plasma and in lung was quantified at 1, 2 and 4 hours post treatment for the single dose analysis (group of 3 animals) and at 12 hours after the last administration for the multiple dose analysis (group of 6 animals).

## O=C(Nc1ncc([N+](=O)[O-])s1)c1ccccc1O [TIZ, tizoxanide]
[1]
  Tmax: 16.6 min
  half-life: 48 min
[2]; Severe acute respiratory syndrome coronavirus 2, Vero C1008, 48 h, Vero E6 cells, viral RNA, 2 days incubation
  EC90: 9.27 µM
[2]; Severe acute respiratory syndrome coronavirus 2, Vero C1008, 48 h, Vero E6 cells, viral RNA, 2 days incubation, read-out: EC50
  EC50: 7.48 µM
[2]; Severe acute respiratory syndrome coronavirus 2, Vero C1008, read-out: EC50 expressed in µg/mL
  EC50: 1.98 µg/mL
[2]; Vero E6 cells
  Selectivity Index (SI=CC50/EC50): higher than 13.3
[3]
  CC50 at 2 days: > 60 µM
[4]; Syrian, hamster, in vivo, 2.8 mg/kg/day TID, multiple dose, infected animals, nitazoxanide IN 2,8 mg/kg/day TID, 12h post-administration, individual animals, read-out: Lung to plasma ratio
  Kp at 12 h: 12.8
[4]; Syrian, hamster, in vivo, 2.8 mg/kg/day TID, multiple dose, infected animals, nitazoxanide IN 2,8 mg/kg/day TID, 12h post-administration, individual animals, read-out: Tizoxanide concentration in blood
  concentration at 12 h: 8 ng/mL
[4]; Syrian, hamster, in vivo, 2.8 mg/kg/day, multiple dose, infected animals, nitazoxanide IN 2,8 mg/kg/day TID, 12h post-administration, individual animals, read-out: Tizoxanide concentration in blood
  concentration at 12 h: 30 nM
[4]; Syrian, hamster, in vivo, 2.8 mg/kg/day, multiple dose, infected animals, nitazoxanide IN 2,8 mg/kg/day TID, 12h post-administration, individual animals, read-out: Tizoxanide concentration in lungs
  concentration at 12 h: 11.7 ng/mL and 40 nM
[4]; Syrian, hamster, in vivo, 750 mg/kg/day TID, multiple dose, infected animals, nitazoxanide per os 750 mg/kg/day TID, 12h post-administration, individual animals, read-out: Tizoxanide concentration in lungs
  concentration at 12 h: 40 nM
[4]; hamster, in vivo, 2.8 mg/kg/day, multiple dose NTZ 2.8mg/kg/day TID intranasal, at 3 dpi, 12 hours (trough), read-out: L/p ratio
  Kp at 12 h: 1280
[4]; hamster, in vivo, 2.8 mg/kg/day, multiple dose, infected animals, nitazoxanide IN 2,8 mg/kg/day TID, 12h post-administration, individual animals, read-out: Tizoxanide concentration in lungs
  concentration at 12 h: 103 ng/g
[4]; hamster, in vivo, 2.8 mg/kg/day, multiple dose, infected animals, nitazoxanide IN 2,8 mg/kg/day TID, 12h post-administration, individual animals, read-out: Tizoxanide concentration in nasal turbinates
  concentration at 12 h: 14.8 ng/mL and 60 nM
[4]; hamster, in vivo, 13.5 mg, after single-dose administration (13.5mg NTZ), hamsters, read-out: lung/plasma ratio
  Kp: 0.022 to 0.048
[4]; hamster, in vivo, 13.5 mg, single dose nitazoxanide 13.5mg, uninfected animals, 1h post-administration, individual animals, read-out: Tizoxanide concentration in lungs
  concentration at 1 h: 21.5 ng/mL and 80 nM and 161 ng/g
[4]; hamster, in vivo, 13.5 mg, single dose nitazoxanide 13.5mg, uninfected animals, 2h post-administration, individual animals, read-out: Lung to plasma ratio
  Kp at 2 h: 0.027
[4]; hamster, in vivo, 13.5 mg, single dose nitazoxanide 13.5mg, uninfected animals, 2h post-administration, individual animals, read-out: Tizoxanide concentration in lungs
  concentration at 2 h: 17.1 ng/mL and 60 nM and 132 ng/g
[4]; hamster, in vivo, 13.5 mg, single dose nitazoxanide 13.5mg, uninfected animals, 4h post-administration, individual animals, read-out: Lung to plasma ratio
  Kp at 4 h: 0.042
[4]; hamster, in vivo, 13.5 mg, single dose nitazoxanide 13.5mg, uninfected animals, 4h post-administration, individual animals, read-out: Tizoxanide concentration in lungs
  concentration at 4 h: 8.3 ng/mL and 30 nM and 61 ng/g
[4]; hamster, in vivo, 500 mg/kg/day BID, multiple dose NTZ 500mg/kg/day BID oral, infected hamsters at 3 dpi, 12 h after last dose (trough), mean ± SD, read-out: TIZ concentration Plasma
  concentration at 12 h: 940 ng/mL and 940 nM
[4]; hamster, in vivo, 500 mg/kg/day BID, multiple dose, infected animals, nitazoxanide per os 500 mg/kg/day BID, 12h post-administration, individual animals, read-out: Tizoxanide concentration in lungs
  concentration at 12 h: 8.1 ng/mL and 30 nM and 57 ng/g
[4]; hamster, in vivo, 750 mg/kg/day TID, multiple dose NTZ 750mg/kg/day TID oral, infected hamsters at 3 dpi, 12 hours after last dose (trough), mean ± SD, read-out: TIZ concentration Plasma
  concentration at 12 h: 1490 ng/mL and 1.49 µM
[4]; hamster, in vivo, po, 13.5 mg, single oral dose 13.5mg NTZ, uninfected hamsters, 1 h post-treatment, mean ± SD, read-out: TIZ concentration Plasma
  concentration at 1 h: 5160 ng/mL and 5.16 µM
[4]; hamster, in vivo, po, 13.5 mg, single oral dose 13.5mg NTZ, uninfected hamsters, 2 h post-treatment, individual values, read-out: L/p ratio (%)
  Kp at 2 h: 0.027
[4]; hamster, in vivo, po, 13.5 mg, single oral dose 13.5mg NTZ, uninfected hamsters, 2 h post-treatment, mean ± SD, read-out: TIZ concentration Plasma
  concentration at 2 h: 3390 ng/mL and 3.39 µM
[4]; hamster, in vivo, po, 13.5 mg, single oral dose 13.5mg NTZ, uninfected hamsters, 4 h post-treatment, individual values, read-out: L/p ratio (%)
  Kp at 4 h: 0.042
[4]; hamster, in vivo, po, 13.5 mg, single oral dose 13.5mg NTZ, uninfected hamsters, 4 h post-treatment, mean ± SD, read-out: TIZ concentration Plasma
  concentration at 4 h: 820 ng/mL and 820 nM
[4]; multiple dose NTZ 2.8mg/kg/day TID intranasal, at 3 dpi, 12 hours (trough), individual values
  TIZ concentration Lung (µM/g): 0.39 µM/g and 0.41 µM/g
[4]; multiple dose NTZ 500mg/kg/day BID oral, at 3 dpi, 12 h (trough), individual values
  L/p ratio (%): 2.7% and 32.8%
